Data from PMC8744338, “Luteolin increases susceptibility to macrolides by inhibiting MsrA efflux pump in Trueperella pyogenes” (Veterinary Research, 2022).

Target: T1, MsrA efflux pump (His-MsrA) (Staphylococcus epidermidis, UniProt P23212)
T1 construct: macrolide ABC-F MsrA of staphylococcal type, not methionine sulfoxide reductase
Experiment: surface plasmon resonance (Biacore T200, His-MsrA captured on NTA chip)
Type: binding
Conditions: PBS-P running buffer; luteolin 12.5-400 μM

T1 sequence (P23212 whole entry): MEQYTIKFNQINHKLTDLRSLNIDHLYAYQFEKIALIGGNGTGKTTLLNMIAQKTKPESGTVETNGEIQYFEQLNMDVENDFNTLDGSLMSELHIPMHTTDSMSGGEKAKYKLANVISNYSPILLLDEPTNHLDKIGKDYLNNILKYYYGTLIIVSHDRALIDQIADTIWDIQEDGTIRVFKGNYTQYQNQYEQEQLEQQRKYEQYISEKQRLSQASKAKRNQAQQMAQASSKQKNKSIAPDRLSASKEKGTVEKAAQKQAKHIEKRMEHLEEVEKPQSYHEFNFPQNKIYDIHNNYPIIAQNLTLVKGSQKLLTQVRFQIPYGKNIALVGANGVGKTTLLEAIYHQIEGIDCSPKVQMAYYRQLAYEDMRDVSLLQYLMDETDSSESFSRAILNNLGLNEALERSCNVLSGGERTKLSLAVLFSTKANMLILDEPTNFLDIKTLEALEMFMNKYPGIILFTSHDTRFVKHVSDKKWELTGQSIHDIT

O=c1cc(-c2ccc(O)c(O)c2)oc2cc(O)cc(O)c12 [luteolin]
Kd: 64.6 µM
